Results as given in patent US20260148853A1, “UQCC2-BASED COMPUTER-ASSISTED METHOD, SYSTEM, AND DEVICE FOR DIAGNOSING OSIMERTINIB-RESISTANT LUNG CANCER, PREDICTING DRUG THERAPEUTIC EFFECTS, AND SCREENING DRUGS TARGETED FOR OSIMERTINIB-RESISTANT LUNG CANCER” (THE SECOND HOSPITAL OF DALIAN MEDICAL UNIVERSITY, priority 2024, published 2026).
d = 2'-deoxy (DNA)

Legend:
Assay type in all cases: cell-based
UQCC2 [1] = assay: western blot of UQCC2 after siRNA knockdown of METTL3 in H1975/OR cells; conditions: FIG. 11B
Source text: (§1) In one embodiment, the correlation between METTL3 and UQCC2 expression was investigated by western blot assay after knockdown of the gene expression of METTL3 or UQCC2 in H1975/OR cells through small interfering RNA (siRNA), etc. The knockdown may be a partial reduction in the expression level of a specific gene.
(§2) siMETTL3 (5′-3′) (siRNA for METTL3 gene knockdown): sense strand GCACUUGGAUCUACGGAAU(dT)(dT); antisense strand AUUCCGUAGAUCC AAGUGC(dT)(dT); siUQCC2 (5′-3′) (siRNA for UQCC2 gene knockdown): sense strand: […], antisense strand: […].
(§3) In some embodiments, the western blot assay was performed using the following antibodies: anti-METTL 3 (antibody dilution ratio of 1:2000; #15073-1-AP; Proteintech) and anti-UQCC2 (antibody dilution ratio of 1:1000, Proteintech, #25781-1-AP). Anti-GAPDH (antibody dilution ratio 1:50,000, Proteintech, #60004-1-Ig) was used as a loading control. Significance was calculated using GraphPad Prism software, etc.

[2] = test system: autophagosome markers LC3 and p62; assay: western blot of autophagosome markers after UQCC2 knockdown in H1975/OR cells; conditions: FIG. 11
Description: In a specific embodiment, the impact of UQCC2 knockdown in H1975/OR cells on the expression of the autophagosome markers LC3 and p62 was investigated by western blot assay. siUQCC2 (5′-3′): sense strand: […]; antisense strand: […].
In some embodiments, the western blot assay was performed using the following antibodies: anti-UQCC 2 (antibody dilution ratio of 1:1000, Proteintech, #25781-1-AP), anti-LC3 (antibody dilution ratio of 1:2000; #81004-1-RR; Proteintech), and anti-p 62 (antibody dilution ratio of 1:5000; #80294-1-RR; Proteintech). Anti-GAPDH (Antibody dilution ratio 1:50,000, Proteintech, #60004-1-Ig) was used as a loading control. Significance was calculated using GraphPad Prism software, etc.

METTL3 = assay: western blot of METTL3 after siRNA knockdown of UQCC2 in H1975/OR cells; conditions: FIG. 11C
Source text: as §1, §2, §3

autophagosome marker LC3 = assay: immunofluorescence assay of LC3 after UQCC2 knockdown in H1975/OR cells; conditions: FIG. 12
Description: In one embodiment, the expression of the autophagosome marker LC3 was analyzed by the immunofluorescence assay after the UQCC2 knockdown in H1975/OR cells. siUQCC2 (5′-3′): sense strand: […]; antisense strand: […].
In some embodiments, the H 1975/OR cells may be fixed with 4% formaldehyde, permeabilized with 0.2% Triton X-100, and blocked with 5% bovine serum albumin. The cells were then incubated with the indicated antibodies at 4° C. overnight and stained with fluorescently coupled secondary antibodies and DAPI solution. The H1975/OR cells were photographed under a fluorescence microscope (Leica DM6B Thunder). Anti-LC3 (antibody dilution ratio of 1:100; antibody used was Proteintech, No. 81004-1-RR).

UQCC2 [3] = assay: western blot of UQCC2 protein expression in NCI-H1975/OR cells treated with Ctrl, Osim or Lomi; conditions: NCI-H1975/OR cells (osimertinib-resistant), lomitapide alone vs Osim and Ctrl, FIG. 9
Description: In a specific embodiment, the protein expression levels of UQCC2 in the NCI-H1975 cells and the NCI-H1975/OR cells (Ctrl) were determined by western blot assay, or the like. The NCI-H1975/OR cells (Ctrl) were osimertinib-resistant cells. The western blot assay used anti-UQCC2 (antibody dilution ratio of 1:1000, Proteintech, #25781-1-AP). Anti-GAPDH (antibody dilution ratio of 1:50,000, Proteintech, #60004-1-Ig) was used as a loading control. Significance (denoted as P) was determined using GraphPad Prism software, etc. All statistical analyses were performed using data from at least three independent experiments. […] “*” refers to a marker sign of significance.
In a specific embodiment, the protein expression of UQCC2 in the NCI-H1975/OR cells (treated with Ctrl, Osim, or Lomi alone) was determined by western blot assay. The western blot assay was performed using the following antibody: anti-UQCC2 (antibody dilution ratio of 1:1000, Proteintech, #25781-1-AP). Anti-GAPDH (antibody dilution ratio of 1:50,000, Proteintech, #60004-1-Ig) was used as a loading control. Significance was calculated using GraphPad Prism software, etc.

## siMETTL3: siRNA for METTL3 gene knockdown; sense strand GCACUUGGAUCUACGGAAU(dT)(dT) (antisense AUUCCGUAGAUCCAAGUGC; sense: 3' dTdT, sugars by position and backbone not given here; antisense: chemistry not given here)
UQCC2 [1]
  expression of UQCC2: downregulates

## siUQCC2: siRNA for UQCC2 gene knockdown; sense strand GACUCCAUUCAAACUACUATT, antisense strand UAGUAGUUUUGAAUGGAGUCTT (chemistry not fully specified)
[2]
  autophagy: significantly activated
  expression of autophagosome marker LC3: upregulation
  expression of autophagosome marker p62: upregulation
METTL3
  expression of METTL3: does not affect
Autophagosome marker LC3
  autophagy: significantly activated
  expression of autophagosome marker LC3: up-regulation

## O=C(NC1CCN(CCCCC2(C(=O)NCC(F)(F)F)c3ccccc3-c3ccccc32)CC1)c1ccccc1-c1ccc(C(F)(F)F)cc1 [lomitapide]
UQCC2 [3]
  protein expression of UQCC2: significantly reduced
